Columns and labels:
oat, wild = test: Test C pre-/postemergence herbicide test; type: in vivo, Avena fatua
Description: Seeds of plant species selected from blackgrass (Alopecurus myosuroides), ryegrass, Italian (Italian ryegrass, Lolium multiflorum), wheat (winter wheat, Triticum aestivum), galium (catchweed bedstraw, Galium aparine), corn (Zea mays), crabgrass, large (large crabgrass, Digitaria sanguinalis), foxtail, giant (giant foxtail, Setaria faberii), johnsongrass (Sorghum halepense), lambsquarters (Chenopodium album), morningglory (Ipomoea coccinea), nutsedge, yellow (yellow nutsedge, Cyperus esculentus), pigweed (Amaranthus retroflexus), ragweed (common ragweed, Ambrosia elatior), soybean (Glycine max), barnyardgrass (Echinochloa crus-galli), oilseed rape (Brassica napus), waterhemp (common waterhemp, Amaranthus rudis), kochia (Kochia scoparia), oat, wild (wild oat, Avena fatua), surinam grass (Brachiaria decumbens), foxtail, green (green foxtail, Setaria viridis), goosegrass (Eleusine indica), bromegrass, downy (downy bromegrass, Bromus tectorum), nightshade (eastern black nightshade, Solanum ptycanthum), cocklebur (common cocklebur, Xanthium strumarium), cupgrass, woolly (woolly cupgrass, Eriochloa villosa), bermudagrass (Cynodon dactylon), sunflower, (common oilseed sunflower, Helianthus annuus), Russian thistle (Salsola kali) and velvetleaf (Abutilon theophrasti) were planted into a blend of loam soil and sand and treated preemergence with test chemicals formulated in a non-phytotoxic solvent mixture which included a surfactant. At the same time, plants selected from these crop and weed species and also barley (winter barley, Hordeum vulgare), […]), chickweed (common chickweed, Stellaria media), deadnettle (henbit deadnettle, Lamium amplexicaule), and canarygrass (littleseed canarygrass, Phalaris minor) were planted in pots containing Redi-Earth® planting medium (Scotts Company, 14111 Scottslawn Road, Marysville, Ohio 43041) comprising spaghnum peat moss, vermiculite, wetting agent and starter nutrients and treated with postemergence applications of test chemicals formulated in the same manner. Plants ranged in height from 2 to 18 cm (1- to 4-leaf stage) for postemergence treatments. Treated plants and controls were maintained in a greenhouse for 13 to 15 days, after which time all species were compared to controls and visually evaluated. Plant response ratings, summarized in Table C, are based on a scale of 0 to 100 where 0 is no effect and 100 is complete control. A dash (-) response means no test result.

ragweed [1] = test: Test C pre-/postemergence herbicide test; type: in vivo, Ambrosia elatior
In short: (§1)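 Compound solutions contained surfactant in a non-phytotoxic solvent. These were sprayed onto pots of loam/sand sown with seeds, and onto young plants (2 to 18 cm, 1- to 4-leaf) in sphagnum peat–vermiculite mix. Visual injury scores (0 none, 100 complete control) were recorded after 13 to 15 days.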

velvetleaf = test: Test C pre-/postemergence herbicide test; type: in vivo, Abutilon theophrasti
In short: as §1

giant foxtail = test: Test A pre-/postemergence herbicide test; type: in vivo, Setaria faberii
In short: (§2)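 Formulated compound (non-phytotoxic solvent, surfactant) sprayed pre- onto soil of seeded loam/sand pots or post- onto seedlings at 1–2 leaves; ~10 d greenhouse; 0–100 visual control rating versus untreated.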

ryegrass, Italian = test: Test C pre-/postemergence herbicide test; type: in vivo, Lolium multiflorum
In short: as §1

blackgrass = test: Test A postemergence herbicide test; type: in vivo, Alopecurus myosuroides
In short: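 Potted in loam soil/sand blend; postemergence application at 1–2 leaf stage (2–10 cm). Greenhouse ~10 d. Visual injury vs untreated, 0–100 scale; 100 = complete control.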

ragweed [2] = test: Test A pre-/postemergence herbicide test; type: in vivo, Ambrosia elatior; settings: for Plant response rating, Ragweed: 0 to 100 scale
In short: as §2

rice = test: Test C flooded paddy test; type: in vivo, Oryza sativa; settings: Flood
In short: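 Plants grown to the 2-leaf stage; pots flooded to 3 cm above soil and compound applied directly into the paddy water, depth kept throughout. Greenhouse 13 to 15 days, then visual rating vs untreated controls on 0–100 scale (0 no effect, 100 complete control); dash means no result.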

kochia = test: Test A pre-/postemergence herbicide test; type: in vivo, Kochia scoparia; settings: for Plant response rating, Kochia: 0 to 100 scale
In short: as §2

[3] = Preemergence, 62 g ai/ha, scale 0 to 100
[4] = Preemergence, 125 g ai/ha, scale 0 to 100 (0 no effect, 100 complete control)
[5] = Postemergence, 1000 g ai/ha, 0 to 100 scale (0 no effect, 100 complete control)
[6] = Preemergence, 1000 g ai/ha, visual rating on 0 to 100 scale (0 no effect, 100 complete control), approx. 10 days
[7] = Postemergence, 31 g ai/ha, scale 0 (no effect) to 100 (complete control)
[8] = Postemergence, 62 g ai/ha, scale 0 to 100 (0 no effect, 100 complete control)
[9] = Postemergence, 125 g ai/ha, scale 0 to 100 (0 no effect, 100 complete control)
[10] = Postemergence, 250 g ai/ha, scale 0 to 100 (0 no effect, 100 complete control)
[11] = Preemergence, 31 g ai/ha, scale 0 to 100, 0 is no effect and 100 is complete control
[12] = Preemergence, 62 g ai/ha, scale 0 to 100 (0 no effect, 100 complete control)
[13] = 125 g ai/ha, visual rating, 0 no effect, 100 complete control, approximately 10 days, preemergence
[14] = Postemergence, 125 g ai/ha, 0 is no effect, 100 is complete control
[15] = preemergence, 500 g ai/ha, 0 is no effect and 100 is complete control

O=C1NCC(c2cc(F)c(F)c(F)c2)C1C(=O)Nc1ccccc1C(F)(F)F (racemic) [Compound 33]
Plant response rating, Oat, Wild (oat, wild; [3]): 0
Plant response rating, Oat, Wild (oat, wild; [4]): 20
Plant response rating, Ragweed (ragweed [1]; [3]): 0
Plant response rating, Ragweed (ragweed [1]; [4]): 0
Plant response rating, Velvetleaf (velvetleaf; [3]): 10
Plant response rating, Velvetleaf (velvetleaf; [4]): 10
Plant response rating, Foxtail, Giant (giant foxtail; [5]): 90
Plant response rating, Foxtail, Giant (giant foxtail; [6]): 90
Plant response rating, Ryegrass, Italian (ryegrass, Italian; [3]): 0
Plant response rating, Ryegrass, Italian (ryegrass, Italian; [4]): 0

O=C1NCC(c2cc(F)c(F)c(F)c2)C1C(=O)Nc1ccccc1F (racemic) [Compound 34]
Plant response rating, Oat, Wild (oat, wild; [7]): 0
Plant response rating, Oat, Wild (oat, wild; [8]): 0
Plant response rating, Oat, Wild (oat, wild; [9]): 0
Plant response rating, Oat, Wild (oat, wild; [10]): 0
Plant response rating, Oat, Wild (oat, wild; [3]): 0
Plant response rating, Oat, Wild (oat, wild; [4]): 60
Plant response rating, Ragweed (ragweed [1]; [7]): 5
Plant response rating, Ragweed (ragweed [1]; [8]): 5
Plant response rating, Ragweed (ragweed [1]; [9]): 5
Plant response rating, Ragweed (ragweed [1]; [10]): 5
Plant response rating, Ragweed (ragweed [1]; [3]): 0
Plant response rating, Ragweed (ragweed [1]; [4]): 0
Plant response rating, Velvetleaf (velvetleaf; [7]): 5
Plant response rating, Velvetleaf (velvetleaf; [8]): 5
Plant response rating, Velvetleaf (velvetleaf; [9]): 5
Plant response rating, Velvetleaf (velvetleaf; [10]): 5
Plant response rating, Velvetleaf (velvetleaf; [3]): 0
Plant response rating, Velvetleaf (velvetleaf; [4]): 0
Plant response rating, Foxtail, Giant (giant foxtail; [5]): 90
Plant response rating, Foxtail, Giant (giant foxtail; [6]): 90
Plant response rating, Ryegrass, Italian (ryegrass, Italian; [7]): 0
Plant response rating, Ryegrass, Italian (ryegrass, Italian; [8]): 0
Plant response rating, Ryegrass, Italian (ryegrass, Italian; [9]): 0
Plant response rating, Ryegrass, Italian (ryegrass, Italian; [10]): 0
Plant response rating, Ryegrass, Italian (ryegrass, Italian; [3]): 0
Plant response rating, Ryegrass, Italian (ryegrass, Italian; [4]): 20

Cc1ccccc1NC(=O)C1C(=O)NCC1c1cc(F)c(F)c(F)c1 (racemic) [Compound 35]
Plant response rating, Oat, Wild (oat, wild; [3]): 0
Plant response rating, Oat, Wild (oat, wild; [4]): 0
Plant response rating, Ragweed (ragweed [1]; [3]): 0
Plant response rating, Ragweed (ragweed [1]; [4]): 0
Plant response rating, Velvetleaf (velvetleaf; [3]): 20
Plant response rating, Velvetleaf (velvetleaf; [4]): 20
Plant response rating, Foxtail, Giant (giant foxtail; [5]): 90
Plant response rating, Foxtail, Giant (giant foxtail; [6]): 90
Plant response rating, Ryegrass, Italian (ryegrass, Italian; [3]): 5
Plant response rating, Ryegrass, Italian (ryegrass, Italian; [4]): 5

O=C1NCC(c2ccc(F)c(C(F)(F)F)c2)C1C(=O)Nc1ccccc1F (racemic) [Compound 76]
Plant response rating, Oat, Wild (oat, wild; [7]): 0
Plant response rating, Oat, Wild (oat, wild; [8]): 0
Plant response rating, Oat, Wild (oat, wild; [9]): 0
Plant response rating, Oat, Wild (oat, wild; [10]): 0
Plant response rating, Ragweed (ragweed [1]; [7]): 25
Plant response rating, Ragweed (ragweed [1]; [8]): 40
Plant response rating, Ragweed (ragweed [1]; [9]): 40
Plant response rating, Ragweed (ragweed [1]; [10]): 55
Plant response rating, Velvetleaf (velvetleaf; [7]): 0
Plant response rating, Velvetleaf (velvetleaf; [8]): 0
Plant response rating, Velvetleaf (velvetleaf; [9]): 0
Plant response rating, Velvetleaf (velvetleaf; [10]): 0
Velvetleaf plant response rating (velvetleaf; [11]): 0
Plant response rating, Velvetleaf (velvetleaf; [3]): 0
Plant response rating, Velvetleaf (velvetleaf; [4]): 25
Plant response rating (scale of 0 to 100), Velvetleaf (velvetleaf; Preemergence, 250 g ai/ha): 35
Plant response rating, Foxtail, Giant (giant foxtail; Postemergence, 125 g ai/ha, 0 to 100 scale, 0 no effect, 100 complete control): 80
Plant response rating, Foxtail, Giant (giant foxtail; Postemergence, 500 g ai/ha, 0 to 100 scale (0 no effect, 100 complete control)): 80
Foxtail, Giant plant response rating (giant foxtail; Preemergence, 125 g ai/ha, visual rating on 0 to 100 scale (0 no effect, 100 complete control)): 90
Plant response rating, Foxtail, Giant (giant foxtail; preemergence, 500 g ai/ha, 0 to 100 scale): 90
Plant response rating, Ryegrass, Italian (ryegrass, Italian; [7]): 0
Plant response rating, Ryegrass, Italian (ryegrass, Italian; [8]): 0
Plant response rating, Ryegrass, Italian (ryegrass, Italian; [9]): 0
Plant response rating, Ryegrass, Italian (ryegrass, Italian; [10]): 5
Ryegrass, Italian plant response rating (ryegrass, Italian; [11]): 0
Plant response rating, Ryegrass, Italian (ryegrass, Italian; [3]): 25
Plant response rating, Ryegrass, Italian (ryegrass, Italian; [4]): 40
Plant response rating (scale of 0 to 100), Ryegrass, Italian (ryegrass, Italian; Preemergence, 250 g ai/ha): 40

O=C1NCC(c2cccc(C(F)F)c2)C1C(=O)Nc1cccc(F)c1F (racemic) [Compound 211]
Ragweed plant response rating (ragweed [1]; [11]): 0
Ragweed plant response rating (ragweed [1]; [12]): 10
Plant response rating, Ragweed (ragweed [1]; [4]): 85
Plant response rating (scale of 0 to 100), Ragweed (ragweed [1]; Preemergence, 250 g ai/ha): 100
Plant response rating, Blackgrass (blackgrass; 125 g ai/ha, 0 to 100 scale, 0 is no effect, 100 is complete control): 50
Blackgrass plant response rating (0 to 100 scale, 0 is no effect, 100 is complete control) (blackgrass; 500 g ai/ha): 70
Plant response rating, Ragweed (ragweed [2]; [13]): 30
Plant response rating, Ragweed (ragweed [2]; [14]): 0
Ragweed plant response rating (0 to 100 scale, 0 is no effect, 100 is complete control) (ragweed [2]; Postemergence, 500 g ai/ha): 30
Plant response rating, Ragweed (ragweed [2]; [15]): 80
Plant response rating, Rice (rice; 125 g ai/ha, scale of 0 to 100 where 0 is no effect and 100 is complete control, 13 to 15 days): 0
Plant response rating, Rice (rice; 250 g ai/ha, scale of 0 to 100 where 0 is no effect and 100 is complete control, 13 to 15 days): 0
Plant response rating, Rice (rice; 500 g ai/ha, scale 0 to 100): 15
Plant response rating, Rice (rice; 1000 g ai/ha, scale 0 to 100): 15
Velvetleaf plant response rating (velvetleaf; [11]): 0
Velvetleaf plant response rating (velvetleaf; [12]): 10
Plant response rating, Velvetleaf (velvetleaf; [4]): 30
Plant response rating (scale of 0 to 100), Velvetleaf (velvetleaf; Preemergence, 250 g ai/ha): 35
Plant response rating, Foxtail, Giant (giant foxtail; 125 g ai/ha, visual rating, 0 to 100 scale, 0 no effect, 100 complete control, approximately 10 days, preemergence): 80
Plant response rating, Foxtail, Giant (giant foxtail; Postemergence, 125 g ai/ha, 0 to 100 scale, 0 is no effect, 100 is complete control): 70
Foxtail, Giant plant response rating (0 to 100 scale, 0 is no effect, 100 is complete control) (giant foxtail; Postemergence, 500 g ai/ha): 90
Plant response rating, Foxtail, Giant (giant foxtail; preemergence, 500 g ai/ha, 0 to 100 scale, 0 is no effect and 100 is complete control): 90
Plant response rating, Kochia (kochia; [13]): 40
Plant response rating, Kochia (kochia; [14]): 40
Kochia plant response rating (0 to 100 scale, 0 is no effect, 100 is complete control) (kochia; Postemergence, 500 g ai/ha): 60
Plant response rating, Kochia (kochia; [15]): 70
Ryegrass, Italian plant response rating (ryegrass, Italian; [11]): 0
Ryegrass, Italian plant response rating (ryegrass, Italian; [12]): 35
Plant response rating, Ryegrass, Italian (ryegrass, Italian; [4]): 40
Plant response rating (scale of 0 to 100), Ryegrass, Italian (ryegrass, Italian; Preemergence, 250 g ai/ha): 50
